Measurements taken from the Kinase Knowledgebase extract (Sharma et al. 2016).
pIC50: −log10 of the molar value.

Key:
MAPK14 (human) [1] = molecular target: MAPK14 (human) (UniProt Q16539); test: Inhibition of IL-1 Production in Whole Blood
MAPK14 (human) [2] = molecular target: MAPK14 (human) (UniProt Q16539); test: Inhibition of IL-6 Production in Whole Blood
MAPK14 (human) [3] = molecular target: MAPK14 (human) (UniProt Q16539); test: Inhibition of TNF Production in Whole Blood
MAPK14 (human) [4] = molecular target: MAPK14 (human) (UniProt Q16539); test: Inhibition of IL-1 Production in LPS-Stimulated PBMCs; settings: pbmc
MAPK14 (human) [5] = molecular target: MAPK14 (human) (UniProt Q16539); test: Inhibition of TNF-alpha Production in LPS-Stimulated PBMCs; settings: pbmc
MAPK14 (human) [6] = molecular target: MAPK14 (human) (UniProt Q16539); test: Inhibition of MAPK14 Kinase Activity

Chain of MAPK14 (human) (Q16539 whole entry, looked up): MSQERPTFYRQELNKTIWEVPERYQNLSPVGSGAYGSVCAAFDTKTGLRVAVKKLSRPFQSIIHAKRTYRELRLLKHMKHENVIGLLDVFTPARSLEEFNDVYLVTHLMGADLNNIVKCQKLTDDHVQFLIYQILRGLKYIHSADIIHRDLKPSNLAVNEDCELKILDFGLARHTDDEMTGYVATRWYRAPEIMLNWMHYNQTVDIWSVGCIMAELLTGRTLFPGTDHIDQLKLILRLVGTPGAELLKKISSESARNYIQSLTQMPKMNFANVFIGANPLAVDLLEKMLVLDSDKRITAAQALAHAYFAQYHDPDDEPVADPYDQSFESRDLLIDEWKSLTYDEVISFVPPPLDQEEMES

NC(=O)C(c1cccc(-c2ccccc2CO)n1)c1c(Cl)cccc1Cl (configuration not stated)
pIC50 (MAPK14 (human) [1]): < 6.30
pIC50 (MAPK14 (human) [2]): < 6.30
pIC50 (MAPK14 (human) [3]): < 6.30

CNCc1ccccc1-c1cccc(C(C(N)=O)c2c(Cl)cccc2Cl)n1 (configuration not stated)
pIC50 (MAPK14 (human) [4]): < 6.30
pIC50 (MAPK14 (human) [5]): < 6.30
pIC50 (MAPK14 (human) [1]): < 6.30
pIC50 (MAPK14 (human) [2]): < 6.30
pIC50 (MAPK14 (human) [3]): < 6.30

N#Cc1ccccc1SC1=NN2CNC(=O)C(c3c(Cl)cccc3Cl)=C2C=C1
pIC50 (MAPK14 (human) [1]): < 6.30
pIC50 (MAPK14 (human) [2]): < 6.30
pIC50 (MAPK14 (human) [3]): < 6.30

COc1ccccc1-c1c(=O)ncn2nc(Sc3ccccc3)ccc12
pIC50 (MAPK14 (human) [4]): < 6.30
pIC50 (MAPK14 (human) [5]): < 6.30

Cc1cccc(Sc2ccc3c(-c4c(Cl)cccc4Cl)c(=O)ncn3n2)c1
pIC50 (MAPK14 (human) [4]): 6.30 to 7.00
pIC50 (MAPK14 (human) [5]): 6.30 to 7.00

COc1ccc(-c2c(=O)ncn3nc(Sc4ccc(F)cc4)ccc23)cc1OC
pIC50 (MAPK14 (human) [4]): < 6.30
pIC50 (MAPK14 (human) [6]): 6.00 to 7.00
pIC50 (MAPK14 (human) [5]): < 6.30

Cc1cc(F)ccc1-c1cccc(C(C(N)=O)c2c(Cl)cc(N)cc2Cl)n1 (configuration not stated)
pIC50 (MAPK14 (human) [1]): < 6.30
pIC50 (MAPK14 (human) [2]): < 6.30
pIC50 (MAPK14 (human) [3]): < 6.30

COc1ccc(C2=C3C=CC(Sc4ccc(F)cc4)=NN3CNC2=O)c(Cl)c1OC
pIC50 (MAPK14 (human) [1]): < 6.30
pIC50 (MAPK14 (human) [2]): < 6.30
pIC50 (MAPK14 (human) [3]): < 6.30

CC(C)c1ccccc1Sc1ccc2c(-c3c(Cl)cccc3Cl)c(=O)ncn2n1
pIC50 (MAPK14 (human) [4]): < 6.30
pIC50 (MAPK14 (human) [5]): < 6.30

NC(=O)C(c1cccc(-c2ccccc2)n1)c1c(Cl)cccc1Cl (configuration not stated)
pIC50 (MAPK14 (human) [1]): < 6.30
pIC50 (MAPK14 (human) [2]): < 6.30
pIC50 (MAPK14 (human) [3]): < 6.30

O=C(CCl)Nc1ccc(C2=C3C=CC(Sc4ccc(F)cc4)=NN3CNC2=O)c(Cl)c1
pIC50 (MAPK14 (human) [1]): < 6.30
pIC50 (MAPK14 (human) [2]): < 6.30
pIC50 (MAPK14 (human) [3]): < 6.30

O=C1NCN2N=C(Sc3ccccc3O)C=CC2=C1c1c(Cl)cccc1Cl
pIC50 (MAPK14 (human) [1]): 6.30 to 6.60
pIC50 (MAPK14 (human) [2]): > 6.60
pIC50 (MAPK14 (human) [3]): 6.30 to 6.60

CN(C)C=Nc1ccc(C2=C3C=CC(Sc4ccc(F)cc4Cl)=NN3CNC2=O)c(Cl)c1
pIC50 (MAPK14 (human) [1]): 6.30 to 6.60
pIC50 (MAPK14 (human) [2]): 6.30 to 6.60
pIC50 (MAPK14 (human) [3]): < 6.30

O=C1NCN2N=C(Sc3ccc(F)cc3)C=CC2=C1c1c(Cl)cccc1Cl
pIC50 (MAPK14 (human) [1]): < 6.30
pIC50 (MAPK14 (human) [2]): 6.30 to 6.60

Cc1ccc(Sc2ccc3c(-c4c(Cl)cccc4Cl)c(=O)ncn3n2)cc1
pIC50 (MAPK14 (human) [4]): 6.30 to 7.00
pIC50 (MAPK14 (human) [5]): < 6.30

Nc1cc(F)ccc1SC1=NN2CNC(=O)C(c3c(Cl)cccc3Cl)=C2C=C1
pIC50 (MAPK14 (human) [1]): 6.30 to 6.60
pIC50 (MAPK14 (human) [2]): > 6.60
pIC50 (MAPK14 (human) [3]): 6.30 to 6.60

Cc1cccc(-c2cccc(C(C(N)=O)c3c(Cl)cccc3Cl)n2)c1 (configuration not stated)
pIC50 (MAPK14 (human) [5]): < 6.30
pIC50 (MAPK14 (human) [1]): < 6.30
pIC50 (MAPK14 (human) [2]): < 6.30
pIC50 (MAPK14 (human) [3]): < 6.30

NC(=O)C(c1cccc(-c2cccs2)n1)c1c(Cl)cccc1Cl (configuration not stated)
pIC50 (MAPK14 (human) [4]): < 6.30
pIC50 (MAPK14 (human) [5]): < 6.30

NC(=O)C(c1cccc(-c2ccccc2CN2CCNCC2)n1)c1c(Cl)cccc1Cl (configuration not stated)
pIC50 (MAPK14 (human) [4]): < 6.30
pIC50 (MAPK14 (human) [5]): < 6.30
pIC50 (MAPK14 (human) [1]): < 6.30
pIC50 (MAPK14 (human) [2]): < 6.30
pIC50 (MAPK14 (human) [3]): < 6.30

N=C(N)Nc1cc(F)c(F)cc1SC1=NN2CNC(=O)C(c3c(Cl)cccc3Cl)=C2C=C1
pIC50 (MAPK14 (human) [4]): < 6.30
pIC50 (MAPK14 (human) [5]): < 6.30

Nc1ccc(Cl)c(C2=C3C=CC(Sc4ccc(F)cc4)=NN3CNC2=O)c1Cl
pIC50 (MAPK14 (human) [1]): < 6.30
pIC50 (MAPK14 (human) [2]): < 6.30
pIC50 (MAPK14 (human) [3]): < 6.30

O=C1NCN2N=C(Sc3ccc(F)cc3Cl)C=CC2=C1c1cc2c(cc1Cl)OCO2
pIC50 (MAPK14 (human) [1]): < 6.30
pIC50 (MAPK14 (human) [2]): 6.30 to 6.60
pIC50 (MAPK14 (human) [3]): < 6.30

COC(=O)CCc1ccc(SC2=NN3CNC(=O)C(c4c(Cl)cccc4Cl)=C3C=C2C)cc1
pIC50 (MAPK14 (human) [4]): 6.30 to 7.00
pIC50 (MAPK14 (human) [5]): < 6.30
pIC50 (MAPK14 (human) [1]): < 6.30
pIC50 (MAPK14 (human) [2]): < 6.30
pIC50 (MAPK14 (human) [3]): < 6.30

COc1ccc(-c2c(=O)ncn3nc(Sc4ccc(F)cc4)ccc23)c(Cl)c1OC
pIC50 (MAPK14 (human) [4]): < 6.30
pIC50 (MAPK14 (human) [5]): < 6.30
pIC50 (MAPK14 (human) [1]): < 6.30
pIC50 (MAPK14 (human) [2]): < 6.30
pIC50 (MAPK14 (human) [3]): < 6.30

NC(=O)C(c1cccc(-c2ccccc2C=NO)n1)c1c(Cl)cccc1Cl (configuration not stated)
pIC50 (MAPK14 (human) [5]): < 6.30
pIC50 (MAPK14 (human) [1]): < 6.30
pIC50 (MAPK14 (human) [2]): < 6.30
pIC50 (MAPK14 (human) [3]): < 6.30

COC(=O)c1ccccc1Sc1ccc2c(-c3c(Cl)cccc3Cl)c(=O)ncn2n1
pIC50 (MAPK14 (human) [4]): > 7.00
pIC50 (MAPK14 (human) [5]): 6.30 to 7.00
pIC50 (MAPK14 (human) [1]): < 6.30
pIC50 (MAPK14 (human) [3]): < 6.30

Cc1cc(F)ccc1SC1=NN2CNC(=O)C(c3c(F)cccc3F)=C2C=C1
pIC50 (MAPK14 (human) [4]): 6.30 to 7.00
pIC50 (MAPK14 (human) [6]): > 7.00
pIC50 (MAPK14 (human) [5]): < 6.30

O=c1ncn2nc(Sc3ccccc3)ccc2c1-c1c(F)cccc1C(F)(F)F
pIC50 (MAPK14 (human) [4]): < 6.30
pIC50 (MAPK14 (human) [5]): < 6.30

NC(=O)C(c1cccc(-c2ccccc2)n1)c1cc(Cl)ccc1Cl (configuration not stated)
pIC50 (MAPK14 (human) [4]): 6.30 to 7.00
pIC50 (MAPK14 (human) [5]): < 6.30
pIC50 (MAPK14 (human) [1]): < 6.30
pIC50 (MAPK14 (human) [2]): < 6.30
pIC50 (MAPK14 (human) [3]): < 6.30

CN(C)C(=O)c1ccccc1Sc1ccc2c(-c3c(Cl)cccc3Cl)c(=O)ncn2n1
pIC50 (MAPK14 (human) [4]): < 6.30
pIC50 (MAPK14 (human) [5]): < 6.30

NC(=O)C(c1cccc(-c2ccc(Cl)cc2Cl)n1)c1c(Cl)cccc1Cl (configuration not stated)
pIC50 (MAPK14 (human) [1]): < 6.30
pIC50 (MAPK14 (human) [2]): < 6.30
pIC50 (MAPK14 (human) [3]): < 6.30
